In paper PMC5697638, “Identification of a Potent Phosphoinositide 3‐Kinase Pan Inhibitor Displaying a Strategic Carboxylic Acid Group and Development of Its Prodrugs” (Chemmedchem, 2017):

Legend:
[1] = molecular target: T1, hPI3Kβ (PIK3CB wt/PIK3R1) (Homo sapiens, UniProt P42338); assay: lipid kinase assay (ADP-Glo), PI3Kβ; type: biochemical
T1 construct: purchased ProQinase, Germany 1168‐1165‐1
Method: (§1) In vitro selection, lipid kinase assay: To determine the inhibitory activity of the new molecular entities on PI3K enzyme, a lipid kinase assay was performed: recombinant proteins (30 ng), human PI3Kα (PIK3CA/PIK3R1, #1161‐1165‐1 ProQinase–Germany), hPI3Kβ (PIK3CB wt/PIK3R1, #1168‐1165‐1 ProQinase, Germany), hPI3Kγ (PIK3CG, #1163‐0000‐1 ProQinase, Germany), hPI3Kδ (PIK3CD/PIK3R1, #1162–1165‐1 ProQinase, Germany), hPI3K‐C2α (PIK3C2A, #14‐906 Merck Millipore_Merck KGaA, Germany), hPI3K‐C2β (PIK3C2B, #14‐907 Merck Millipore_Merck KGaA, Germany), hPI3K‐c2γ (PIK3C2G, #1207‐0000‐1 ProQinase, Germany), and hVps34 (PIK3C3, #1160‐0000‐1 ProQinase, Germany), were incubated in kinase buffer {12.5 μL; 20 mM Tris‐HCl pH 7.5, 10 mM MgCl2, 10 μM ATP, 0.05 mg mL^−1 BSA, 0.5 mM EDTA, 5 mM HEPES pH 7.5, for PI3Kα,PI3Kβ, PI3Kγ, PI3Kδ, PI3KC‐2α, and PI3KC‐2γ; 15 mM MnCl2, 5 mM EGTA, 100 μM ATP, 50 mM HEPES pH 7.5, 100 mM NaCl, and 0.03 % CHAPS for PI3K‐C2β and VPS34 {BSA=bovine serum albumin; EDTA=ethylenediaminetetraacetic acid; HEPES=4‐(2‐hydroxyethyl)‐1‐piperazineethanesulfonic acid; EGTA=ethylene glycol‐bis(2‐aminoethylether)‐N,N,N′,N′‐tetraacetic acid; CHAPS=3‐[(3‐cholamidopropyl)dimethylammonio]‐1‐propanesulfonate}. In the reaction, the ATP concentration used for different PI3Ks was defined on the basis of the Michaelis–Menten kinetics of each enzyme, provided by the supplier. Reaction was performed in presence of 0.5 mg mL^−1 lipid micelles (1:1 phosphatidylinositol/phosphatidylserine) and in the absence (DMSO alone) or presence of increasing concentrations of each compound (from 0.1 nM to 30 μM). The mixture was kept at room temperature (RT) for 30 min for PI3Kα, PI3Kβ, PI3Kγ, PI3Kδ, PI3KC‐2α, and PI3KC‐2γ and for 1 h for PI3K‐C2β and PI3K‐C3. The amount of ADP produced in the reaction was measured by using the ADP‐Glo Kinase Assay kit from Promega (#V9102) and a luminescence reader (Glomax multi detection system, Promega, model number 9301‐010).
(§2) The residual PI3K lipid kinase activity in the presence of each molecule at different concentrations was related to the control, intended as the recombinant protein in the presence of DMSO alone and was expressed as a percentage. To derive the IC50 value, all data (% of lipid kinase activity) were plotted on a dose–response curve (Graph Pad software), and the IC50 was calculated by using nonlinear regression fit (equation [log agonist] versus response).

[2] = molecular target: T2, hPI3Kδ (PIK3CD/PIK3R1) (Homo sapiens, UniProt O00329); assay: lipid kinase assay (ADP-Glo), PI3Kδ; type: biochemical
T2 construct: purchased ProQinase, Germany 1162–1165‐1
Method: as §1, §2

[3] = molecular target: hPI3K‐C2β (PIK3C2B) (Homo sapiens, UniProt O00750); assay: lipid kinase assay (ADP-Glo), PI3K-C2β; type: biochemical; conditions: Table 2; 100 μM ATP; read-out: IC50 PI3Kc2β
Method: as §1, with “Reaction was performed in presence of 0.5 mg mL^−1 lipid micelles (1:1 phosphatidylinositol/phosphatidylserine) and in the absence (DMSO alone) or presence of increasing concentrations of each compound (from 0.1 nM to 30 μM). The mixture was kept at room temperature (RT) for 30 min for PI3Kα, PI3Kβ, PI3Kγ, PI3Kδ, PI3KC‐2α, and PI3KC‐2γ and for 1 h for PI3K‐C2β and PI3K‐C3. The amount of ADP produced in the reaction was measured by using the ADP‐Glo Kinase Assay kit from Promega (#V9102) and a luminescence reader (Glomax multi detection system, Promega, model number 9301‐010).” left out

[4] = system: PC3 cells; assay: cell-cycle analysis, propidium iodide flow cytometry; type: cell-based; conditions: 10 μM, 48 h
Method: Cell‐cycle analysis: For DNA content determination, PC3 cells were seeded at 4×10^5 cells per 6 cm dish in triplicate in the presence of DMEM high glucose GlutaMAXTM (Gibco), 10 % fetal bovine serum (Invitrogen) supplemented with 5000 U mL^−1 penicillin–streptomycin (Gibco). The day after seeding, cells were treated for 48 h with 10 μM 64 or DMSO. Subsequently, PC3 cells were detached with 0.1 % trypsin–EDTA (Gibco), fixed in 70 % ethanol overnight at −20 °C, and stained for 40 min at […] with PI solution, containing 0.05 % Triton X‐100, 0.1 mg mL^−1 RNase, and 25 μg mL^−1 propidium iodide. Sample were analyzed for the DNA content by using a FACS‐Calibur flow cytometer (Becton Dickinson Immunocytometry Systems, San Jose, USA). The percentages of cells in the G0/G1, S, and G2 phases were calculated.

[5] = system: PC3 cells; assay: analysis of apoptosis, Annexin V staining; type: cell-based; conditions: 10 μM, 48 h
Method: Analysis of apoptosis: For Annexin V staining of apoptotic cells, PC3 cells were seeded at 4×10^5 cells per 6 cm dish in triplicate. Cells were incubated 48 h in the presence or absence of 10 μM 64 and were then detached with 0.1 % trypsin–EDTA, resuspended in Annexin buffer (10 mM HEPES, pH 7.4, 140 mM NaCl, 2.5 mM CaCl2), and stained for Annexin V (FITC Annexin V #640906, BioLegend, USA). Samples were analyzed by using a FACS‐Calibur flow cytometer (Becton Dickinson Immunocytometry Systems, San Jose, USA).

[6] = Table 2, mean of at least three determinations, 95 % confidence intervals

T2 sequence (O00329 whole entry): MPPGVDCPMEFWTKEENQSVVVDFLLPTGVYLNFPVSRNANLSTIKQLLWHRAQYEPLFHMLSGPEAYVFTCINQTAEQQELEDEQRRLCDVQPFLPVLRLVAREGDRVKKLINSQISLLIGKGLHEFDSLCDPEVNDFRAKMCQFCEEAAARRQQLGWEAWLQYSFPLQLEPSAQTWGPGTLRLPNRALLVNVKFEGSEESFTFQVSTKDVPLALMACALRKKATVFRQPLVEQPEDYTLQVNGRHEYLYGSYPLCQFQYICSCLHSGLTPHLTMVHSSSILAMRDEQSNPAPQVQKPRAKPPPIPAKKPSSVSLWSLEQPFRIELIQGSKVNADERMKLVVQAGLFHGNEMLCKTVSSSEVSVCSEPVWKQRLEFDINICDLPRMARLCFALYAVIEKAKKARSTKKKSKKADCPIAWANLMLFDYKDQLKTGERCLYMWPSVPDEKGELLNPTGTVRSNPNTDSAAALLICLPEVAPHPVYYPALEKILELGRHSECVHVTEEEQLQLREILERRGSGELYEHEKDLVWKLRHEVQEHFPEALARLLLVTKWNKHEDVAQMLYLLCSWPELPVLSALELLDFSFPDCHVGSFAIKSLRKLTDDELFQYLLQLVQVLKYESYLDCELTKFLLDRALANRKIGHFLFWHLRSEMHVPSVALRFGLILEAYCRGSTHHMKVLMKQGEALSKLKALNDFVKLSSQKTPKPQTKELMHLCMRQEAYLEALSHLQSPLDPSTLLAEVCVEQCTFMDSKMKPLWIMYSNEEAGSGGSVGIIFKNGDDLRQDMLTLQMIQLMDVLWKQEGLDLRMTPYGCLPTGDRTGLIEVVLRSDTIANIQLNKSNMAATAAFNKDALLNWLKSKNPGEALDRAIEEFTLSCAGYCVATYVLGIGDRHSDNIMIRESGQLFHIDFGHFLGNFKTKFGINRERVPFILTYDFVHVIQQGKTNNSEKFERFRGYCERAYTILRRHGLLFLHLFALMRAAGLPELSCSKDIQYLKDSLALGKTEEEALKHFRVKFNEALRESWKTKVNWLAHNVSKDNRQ
T2 sequence (P27986 whole entry partner): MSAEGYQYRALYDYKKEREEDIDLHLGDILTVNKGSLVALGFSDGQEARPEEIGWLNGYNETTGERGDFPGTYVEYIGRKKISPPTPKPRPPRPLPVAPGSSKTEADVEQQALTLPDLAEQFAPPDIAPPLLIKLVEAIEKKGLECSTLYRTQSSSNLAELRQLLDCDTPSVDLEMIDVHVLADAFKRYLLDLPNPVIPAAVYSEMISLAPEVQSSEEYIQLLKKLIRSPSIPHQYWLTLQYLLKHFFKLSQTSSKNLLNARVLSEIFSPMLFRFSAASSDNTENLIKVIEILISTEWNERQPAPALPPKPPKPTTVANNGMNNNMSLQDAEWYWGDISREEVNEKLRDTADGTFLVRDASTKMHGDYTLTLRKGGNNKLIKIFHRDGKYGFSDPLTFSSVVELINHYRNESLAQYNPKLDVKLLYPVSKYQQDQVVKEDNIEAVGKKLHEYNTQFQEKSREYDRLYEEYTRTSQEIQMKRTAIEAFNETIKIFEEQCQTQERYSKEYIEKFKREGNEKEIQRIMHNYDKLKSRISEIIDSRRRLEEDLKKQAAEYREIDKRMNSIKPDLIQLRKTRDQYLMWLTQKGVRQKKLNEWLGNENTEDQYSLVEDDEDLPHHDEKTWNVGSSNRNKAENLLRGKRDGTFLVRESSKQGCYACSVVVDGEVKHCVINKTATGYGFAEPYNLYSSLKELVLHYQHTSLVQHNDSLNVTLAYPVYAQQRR
T1 sequence (P42338 whole entry): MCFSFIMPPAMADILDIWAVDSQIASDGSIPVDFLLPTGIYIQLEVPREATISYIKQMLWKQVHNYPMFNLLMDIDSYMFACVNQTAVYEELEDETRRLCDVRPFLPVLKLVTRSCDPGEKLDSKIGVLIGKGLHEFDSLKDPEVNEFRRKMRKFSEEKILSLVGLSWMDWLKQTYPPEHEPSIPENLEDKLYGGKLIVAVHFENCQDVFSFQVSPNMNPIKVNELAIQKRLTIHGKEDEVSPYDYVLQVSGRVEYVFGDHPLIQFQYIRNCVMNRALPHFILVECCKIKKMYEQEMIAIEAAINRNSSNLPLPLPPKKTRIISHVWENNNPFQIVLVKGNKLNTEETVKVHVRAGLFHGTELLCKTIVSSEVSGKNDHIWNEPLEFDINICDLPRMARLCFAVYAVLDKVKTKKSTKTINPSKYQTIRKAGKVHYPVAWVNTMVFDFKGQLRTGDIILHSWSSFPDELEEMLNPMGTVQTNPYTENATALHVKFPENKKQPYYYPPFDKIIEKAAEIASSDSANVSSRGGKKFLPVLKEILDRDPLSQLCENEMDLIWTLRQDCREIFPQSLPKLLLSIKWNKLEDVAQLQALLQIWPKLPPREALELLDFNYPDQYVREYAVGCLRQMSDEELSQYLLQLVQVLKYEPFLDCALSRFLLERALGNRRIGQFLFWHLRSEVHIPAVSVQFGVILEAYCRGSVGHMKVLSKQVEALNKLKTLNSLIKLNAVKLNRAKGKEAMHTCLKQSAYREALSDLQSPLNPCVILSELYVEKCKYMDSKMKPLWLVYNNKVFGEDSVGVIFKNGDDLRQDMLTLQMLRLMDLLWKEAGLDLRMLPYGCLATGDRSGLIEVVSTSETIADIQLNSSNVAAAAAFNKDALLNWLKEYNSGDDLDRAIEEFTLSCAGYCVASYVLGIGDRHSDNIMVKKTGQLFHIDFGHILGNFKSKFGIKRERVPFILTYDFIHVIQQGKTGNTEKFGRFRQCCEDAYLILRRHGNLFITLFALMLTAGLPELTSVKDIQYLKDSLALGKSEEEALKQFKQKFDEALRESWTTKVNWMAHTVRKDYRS
T1 sequence (P27986 whole entry partner): as the sequence (P27986 whole entry partner) above
Sequence of hPI3K‐C2β (PIK3C2B) (O00750 whole entry): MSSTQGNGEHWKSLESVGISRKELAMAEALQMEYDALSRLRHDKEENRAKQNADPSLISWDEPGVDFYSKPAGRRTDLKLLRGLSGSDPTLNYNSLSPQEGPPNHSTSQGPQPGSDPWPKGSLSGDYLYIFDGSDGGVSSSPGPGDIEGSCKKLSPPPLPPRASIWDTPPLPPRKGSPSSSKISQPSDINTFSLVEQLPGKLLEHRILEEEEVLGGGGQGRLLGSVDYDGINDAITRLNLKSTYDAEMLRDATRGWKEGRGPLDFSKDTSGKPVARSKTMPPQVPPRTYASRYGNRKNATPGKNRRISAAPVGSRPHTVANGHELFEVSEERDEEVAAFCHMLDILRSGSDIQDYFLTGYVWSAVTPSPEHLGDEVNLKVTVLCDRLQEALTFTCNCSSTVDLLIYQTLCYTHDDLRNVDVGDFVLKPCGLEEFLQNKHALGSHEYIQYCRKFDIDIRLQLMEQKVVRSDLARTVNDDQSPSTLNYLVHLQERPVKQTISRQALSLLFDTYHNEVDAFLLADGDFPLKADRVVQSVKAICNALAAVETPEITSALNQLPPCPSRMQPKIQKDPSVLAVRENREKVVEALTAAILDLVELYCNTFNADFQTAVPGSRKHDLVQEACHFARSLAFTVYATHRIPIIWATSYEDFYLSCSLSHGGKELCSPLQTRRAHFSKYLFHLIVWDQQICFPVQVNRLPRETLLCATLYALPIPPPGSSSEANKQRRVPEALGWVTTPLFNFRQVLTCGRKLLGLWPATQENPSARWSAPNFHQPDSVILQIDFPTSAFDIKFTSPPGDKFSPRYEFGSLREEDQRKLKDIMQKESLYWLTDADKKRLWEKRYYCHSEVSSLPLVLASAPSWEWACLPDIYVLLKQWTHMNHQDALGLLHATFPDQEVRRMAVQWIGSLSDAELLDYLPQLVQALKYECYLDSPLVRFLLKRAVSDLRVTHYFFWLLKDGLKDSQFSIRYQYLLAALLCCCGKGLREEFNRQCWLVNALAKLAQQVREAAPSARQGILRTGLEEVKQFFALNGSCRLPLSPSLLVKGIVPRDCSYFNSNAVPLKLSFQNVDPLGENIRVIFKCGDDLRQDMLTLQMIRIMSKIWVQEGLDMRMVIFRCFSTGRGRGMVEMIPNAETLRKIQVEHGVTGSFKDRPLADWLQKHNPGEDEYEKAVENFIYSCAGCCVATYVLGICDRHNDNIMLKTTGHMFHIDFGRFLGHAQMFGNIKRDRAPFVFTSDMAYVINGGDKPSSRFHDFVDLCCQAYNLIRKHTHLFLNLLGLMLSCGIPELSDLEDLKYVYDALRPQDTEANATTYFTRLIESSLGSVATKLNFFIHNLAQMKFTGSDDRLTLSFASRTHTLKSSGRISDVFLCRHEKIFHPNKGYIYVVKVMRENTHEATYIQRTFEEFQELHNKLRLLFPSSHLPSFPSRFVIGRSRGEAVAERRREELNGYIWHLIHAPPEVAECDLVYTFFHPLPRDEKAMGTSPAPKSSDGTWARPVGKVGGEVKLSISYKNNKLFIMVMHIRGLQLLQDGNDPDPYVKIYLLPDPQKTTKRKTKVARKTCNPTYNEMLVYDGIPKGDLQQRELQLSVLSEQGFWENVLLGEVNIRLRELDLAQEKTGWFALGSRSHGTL

SMILES	IC50 [1, 6] [nM]	inhibition at 1 µM ([1]; determined at 1 μM, at least triplicate, read-out: Inhibitory activity, PI3K isoform β) [%]	IC50 [2, 6] [nM]	inhibition at 1 µM ([2]; determined at 1 μM, at least triplicate, read-out: Inhibitory activity, PI3K isoform δ) [%]	IC50 [3] [nM]	effect on cell cycle [4]	effect on cell apoptosis [5]
O=C(O)c1cccc(Cn2cc(-c3cccc4c(=O)cc(N5CCOCC5)[nH]c34)nn2)c1 [Compound 37, 3‐{[4‐(2‐Morpholino‐4‐oxo‐1,4‐dihydroquinolin‐8‐yl)‐1H‐1,2,3‐triazol‐1‐yl]methyl}benzoic acid]	59 ± 15	> 50	19 ± 4	> 50	> 20000	–	–
COC(=O)c1cccc(Cn2cc(-c3cccc4c(=O)cc(N5CCOCC5)[nH]c34)nn2)c1 [Compound 64, Methyl 3‐{[4‐(2‐morpholino‐4‐oxo‐1,4‐dihydroquinolin‐8‐yl)‐1H‐1,2,3‐triazol‐1‐yl]methyl}benzoate]	–	–	–	–	–	induce cell‐cycle arrest	did not show any effect in inducing cell apoptosis
